# Measurements: patent US5985910A, “3- [4- (2- Phenyl-Indole-1-ylmethyl) Phenyl]- Acrylamides as estrogenic agents” (priority 1997, dated 1999)
# What was measured:
# [1] = system: uteri; experiment: Rat Uterotrophic/Antiuterotrophic Bioassay (results headed 3-Day Ovariectomized Rat Model); assay type: in vivo, rat (Sprague-Dawley); settings: 1 μG; Example 12 experiment, control = 31.4 mg
# Procedure: Rat Uterotrophic/Antiuterotrophic Bioassay
# Immature Sprague-Dawley rats (female, 18 days old) were tested in groups of six. […] On day 4 the animals were sacrificed by CO2 asphyxiation and their uteri were removed and stripped of excess lipid, any fluid removed and the wet weight determined. A small section of one horn was submitted for histology and the remainder used to isolate total RNA in order to evaluate complement component 3 gene expression.
# [2] = target: T1, estrogen receptor (Homo sapiens, UniProt P03372); experiment: In Vitro Estrogen Receptor Binding Assay ([3H]-17β-estradiol competition, cytosol of CHO cells overexpressing the estrogen receptor); design: made in house; host or cells: CHO cells overexpressing the receptor; 100,000 g cytosol
# T1 sequence (P03372 1-595): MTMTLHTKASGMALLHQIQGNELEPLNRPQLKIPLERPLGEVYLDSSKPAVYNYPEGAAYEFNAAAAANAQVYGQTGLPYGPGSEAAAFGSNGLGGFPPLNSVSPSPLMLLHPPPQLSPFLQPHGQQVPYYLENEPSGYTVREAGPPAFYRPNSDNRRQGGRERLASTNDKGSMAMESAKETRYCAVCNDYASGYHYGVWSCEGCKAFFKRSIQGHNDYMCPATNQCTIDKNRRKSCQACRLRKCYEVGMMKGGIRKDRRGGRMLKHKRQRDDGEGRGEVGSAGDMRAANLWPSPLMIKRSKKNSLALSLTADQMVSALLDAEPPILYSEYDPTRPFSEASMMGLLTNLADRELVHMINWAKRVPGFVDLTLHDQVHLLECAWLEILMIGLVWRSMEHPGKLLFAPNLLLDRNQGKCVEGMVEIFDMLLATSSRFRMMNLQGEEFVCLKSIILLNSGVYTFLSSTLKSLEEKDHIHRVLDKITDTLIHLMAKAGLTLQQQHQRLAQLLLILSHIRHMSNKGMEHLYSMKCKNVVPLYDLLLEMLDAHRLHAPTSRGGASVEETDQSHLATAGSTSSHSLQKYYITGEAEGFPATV
# Procedure: In Vitro Estrogen Receptor Bonding Assay
# CHO cells overexpressing the estrogen receptor were grown in 150 mm^2 dishes in DMEM+10% dextran coated charcoal, stripped fetal bovine serum. The plates were washed twice with PBS and once with 10 mM Tris-HCl, pH 7.4, 1 mM EDTA. Cells were harvested by scraping the surface and then the cell suspension was placed on ice. Cells were disrupted with a hand-held motorized tissue grinder using two, 10-second bursts. […] The cytosol was then frozen and stored at -80° C. Protein concentration of the cytosol was estimated using the BCA assay with reference standard protein.
# 100 uG/100 uL of the receptor preparation was aliquoted per well. […] The plate was incubated at room temperature for 2.5 h. […] 200 uL of the supernatant solution was then removed for scintillation counting. Samples were counted to 2% or 10 minutes, whichever occurs first. […] Also, wells containing radioactivity but no cytosol were processed with charcoal to estimate unremovable DPM of [^3 H] […].
# Counts per minute (CPM) of radioactivity were automatically converted to disintegrated per minute (DPM) by the Beckman LS 7500 Scintillation Counter using a set of quenched standards to generate a H# for each sample.
# ((DPM sample-DPM not removed by charcoal)/(DPM estradiol-DPM not removed by charcoal))×100%=% of estradiol binding
# For the generation of IC50 curves, % binding is plotted vs compound. […] For a description of these methods, see Hulme, E. C., ed. […] Receptor-Ligand Interactions: A Practical Approach. IRL Press, New York (see especially chapter 8).
# [3] = target: T1, estrogen receptor; experiment: 2X VIT ERE Transfection (luciferase) Assay in CHO cells; assay type: cell-based; design: expressed in transfected cells; host or cells: Chinese Hamster Ovary (CHO) cells, stably transfected; settings: for % Activation with 1 nM 17β-estradiol (luciferase): 1 uM compound + 1 nM 17β-estradiol, 24 h (antagonism); for activation at 1 µM: CHO, 24 h
# Procedure: 2X VIT ERE Transfection Assay
# (§1) Cell Maintenance and Treatment
# Chinese Hamster Ovary cells (CHO) which had been stably transfected with the human estrogen receptor were maintained in DMEM+10% fetal bovine serum (FBS). 48 h prior to treatment the growth medium was replaced with DMEM lacking phenol red +10% dextran coated charcoal stripped FBS (treatment medium). Cells were plated at a density of 5000 cells/well in 96-well plates containing 200 μL of medium/well.
# Calcium Phoshate Transfection
# Reporter DNA (Promega plasmid pGL2 containing two tandem copies of the vitellogenin ERE in front of the minimal thymidine kinase promoter driving the luciferase gene) was combined with the B-galactosidase expression plasmid pCH110 (Pharmacia) and carrier DNA (pTZ18U) in the following ratio:
# 20 uL of this mixture was added to each well of cells and remained on the cells for 16 h. […] Each treatment condition was performed on 8 wells (n=8) which were incubated for 24 h prior to the luciferase assay.
# After removing the PBS, 25 uL of Promega lysis buffer was added to each well and allowed to stand at room temperature for 15 min, followed by 15 min at -80° C. and 15 min at 37° C. 20 uL of lysate was transferred to an opaque 96 well plate for luciferase activity evaluation and the remaining lysate (5 uL) was used for the B-galactosidase activity evaluation (normalize transfection). The luciferan substrate (Promega) was added in 100 uL aliquots to each well automatically by the luminometer and the light produced (relative light units) was read 10 seconds after addition.
# To the remaining 5 uL of lysate 45 uL of PBS was added. Then 50 uL of Promega B-galactosidase 2× assay buffer was added, mixed well and incubated at 37° C. for 1 hour. A plate containing a standard curve (0.1 to 1.5 milliunits in triplicate) was set up for each experimental run. The plates were analyzed on a Molecular Devices spectrophotometric plate reader at 410 nm. The optical densities for the unknown were converted to milliunits of activity by mathematical extrapolation from the standard curve.
# The luciferase data was generated as relative light units (RLUs) accumulated during a 10 second measurement and automatically transferred to a JMP (SAS Inc) file where background RLUs were subtracted. The B-galactosidase values were automatically imported into the file and these values were divided into the RLUs to normalize the data. The mean and standard deviations were determined from a n=8 for each treatment. […] These techniques are described by Tzukerman, M. T., Esty, A., Santiso-Mere, D., Danielian, P., Parker, M. G., Stein, R. B., Pike, J. W. and McDonnel, D. P. (1994). Human estrogen receptor transactivational capacity was determined by both cellular and promoter context and mediated by two functionally distinct intramolecular regions (see Molecular Endocrinology, 8:21-30).
# [4] = system: Ishikawa cells; experiment: Ishikawa Cell Alkaline Phosphatase Assay; assay type: cell-based, human; settings: for % Activation (Compound ± 1 nM 17β-estradiol) (alkaline phosphatase): 10^-6 M compound + 1 nM 17β-estradiol, 48 h (antiestrogen test); for % Activation (alkaline phosphatase): compound alone, 48 h, percent of response related to 1 nM 17β-estradiol
# Procedure: Ishikawa Cell Alkaline Phosphatase Assay
# as §1
# Ishikawa cells were maintained in DMEM/F12 (50%:50%) containing phenol red+10% fetal bovine serum and the medium was supplemented with 2 mM Glutamax, 1% Pen/Strap and 1 mM sodium pyruvate. Five days prior to the beginning of each experiment (treatment of cells) the medium was changed to phenol red-free DMEM/F12+10% dextran coated charcoal stripped serum. On the day before treatment, cells were harvested using 0.5% trypsin/EDTA and plated at a density of 5×10^4 cells/well in 96-well tissue culture plates. […] Cells were treated for 48 h prior to assay. […] Sample population for at each dose was n=8.
# Alkaline Phosphatase Assay
# At the end of 48 h the media is aspirated and cells are washed three times with phosphate buffered saline (PBS). 50 μL of lysis buffer (0.1 M Tris-HCl, pH 9.8, 0.2% Triton X-100) is added to each well. Plates are placed at -80° C. for a minimum of 15 minutes. Plates are thawed at 37° C. followed by the addition of 150 μL of 0.1 M Tris-HCl, pH 9.8, containing 4 mM para-nitrophenylphosphate (pNPP) to each well (final concentration, 3 mM pNPP).
# Absorbance and slope calculations were made using the KineticCalc Application program (Bio-Tek Instruments, Inc., Winooski, Vt.). Results are expressed as the mean +/-S.D. of the rate of enzyme reaction (slope) averaged over the linear portion of the kinetic reaction curve (optical density readings every 5 minutes for 30 minutes absorbance reading).
# Various compounds were assayed for estrogenic activity by the alkaline phosphatase method and corresponding ED50 values (95% C.I.) were calculated. The four listed in the following were used as reference standards:
# A description of such methods is provided by Holinka, C. F., Hata, H., Kuramoto, H. and Gurpide, E. (1986) Effects of steroid hormones and antisteroids on alkaline phosphatase activity in human endometrial cancer cells (Ishikawa Line). Cancer Research, 46:2771-2774, and by Littlefield, B. A., Gurpide, E., Markiewicz, L., McKinley, B. and by Hochberg, R. B. (1990) A simple and sensitive microtiter plate estrogen bioassay based on stimulation alkaline phosphatase in Ishikawa cells; Estrogen action of D5 adrenal steroids. Endocrinology, 6:2757-2762.
SMILES,Estrogen Receptor Affinity (RBA) [2],% Activation with 1 nM 17β-estradiol (luciferase) [3],activation at 1 µM [3],"uterine wet weight, 1 μG 17β-estradiol [1]",% Activation (Compound ± 1 nM 17β-estradiol) (alkaline phosphatase) [4],% Activation (alkaline phosphatase) [4]
"C[C@]12CC[C@@H]3c4ccc(O)cc4CC[C@H]3[C@@H]1CC[C@@H]2O [17β-estradiol, reference compound]",,,,89.0 mg,,
"CCN(CC)C(=O)/C=C/c1ccc(Cn2c(-c3ccc(O)cc3)c(C)c3cc(O)ccc32)cc1 [Example 7, (E)-N,N-Diethyl-3-{4-[5-hydroxy-2-(4-hydroxy-phenyl)-3-methyl-indol-1-ylmethyl]-phenyl}-acrylamide]",42,8%,4%,,9%,1%
"Cc1c(-c2ccc(O)cc2)n(Cc2ccc(/C=C/C(=O)NC(C)(C)C)cc2)c2ccc(O)cc12 [Example 8, 1(E)-N-tert-butyl-3-{4-[5-hydroxy-2-(4-hydroxy-phenyl)-3-methyl-indol-1-ylmethyl]-phenyl}-acrylamide]",40,78%,6%,,22%,10%
"Cc1c(-c2ccc(O)cc2)n(Cc2ccc(/C=C/C(=O)N(C)C)cc2)c2ccc(O)cc12 [Example 10, (E)-N,N-Dimethyl-3-{4-[5-hydroxy-2-(4-hydroxy-phenyl)-3-methyl-indol-1-ylmethyl]-phenyl}-acrylamide]",20,2%,1%,,19%,6%
"CCCCN(C)C(=O)/C=C/c1ccc(Cn2c(-c3ccc(O)cc3)c(C)c3cc(O)ccc32)cc1 [Example 12, (E)-N-Butyl. N'-methyl-3-{4-[5-hydroxy-2-(4-hydroxy-phenyl)-3-methyl-indol-1-ylmethyl]-phenyl}-acrylamide]",114,24%,13%,,16%,7%
"CNC(=O)/C=C/c1ccc(Cn2c(-c3ccc(O)cc3)c(C)c3cc(O)ccc32)cc1 [Example 15, (E)-N,Methyl-3-{4-[5-hydroxy-2-(4-hydroxy-phenyl)-3-methyl-indol-1-ylmethyl]-phenyl}-acrylamide]",53,31%,15%,,5%,0%

# More lines, main results first:
Estrogen Receptor Affinity (RBA) [2],% Activation with 1 nM 17β-estradiol (luciferase) [3],activation at 1 µM [3],SMILES,"uterine wet weight, 1 μG 17β-estradiol [1]",% Activation (Compound ± 1 nM 17β-estradiol) (alkaline phosphatase) [4],% Activation (alkaline phosphatase) [4]
,8%,6%,"Cc1c(-c2ccc(O)cc2)n(Cc2ccc(/C=C/C(=O)N3CCCC3)cc2)c2ccc(O)cc12 [Example 9, (E)-Pyrrolidino-3-{4-[5-hydroxy-2-(4-hydroxy-phenyl)-3-methyl-indol-1-ylmethyl]-phenyl}-acrylamide]",,11%,3%
,17%,8%,Cc1c(-c2ccc(O)cc2)n(Cc2ccc(/C=C/C(=O)N3CCOCC3)cc2)c2ccc(O)cc12 [Example 13],,9%,7%
32,57%,19%,"Cc1c(-c2ccc(O)cc2)n(Cc2ccc(/C=C/C(N)=O)cc2)c2ccc(O)cc12 [Example 14, (E)-3-{4-[5-hydroxy-2-(4-hydroxy-phenyl)-3-methyl-indol-1-ylmethyl]-phenyl}-acrylamide]",,14%,2%
